Laboratory results published in PubChem BioAssay AID743317 (Broad Institute, 2014).
Inconclusive results are not listed. Calls of active or inactive are those of the source.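 How the source made its calls: active means fitted curve reaches 40% activation at or below the top valid dose, and every replicate test is called active; inconclusive means replicate tests disagree, some active and some inactive; inactive means all replicate tests inactive, including activity in the wrong direction.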

Target: Endoplasmic reticulum aminopeptidase 1 (Homo sapiens) (UniProt Q9NZ08)
Assay: ERAP1 aminopeptidase activity change, dose response, biochemical, fluorescence, cherry-pick (AID 743317)
Details: ERAP1 enzyme, Leu-AMC fluorescence, 60 min

Endoplasmic reticulum aminopeptidase 1 (Homo sapiens), sequence (Q9NZ08 whole entry, looked up): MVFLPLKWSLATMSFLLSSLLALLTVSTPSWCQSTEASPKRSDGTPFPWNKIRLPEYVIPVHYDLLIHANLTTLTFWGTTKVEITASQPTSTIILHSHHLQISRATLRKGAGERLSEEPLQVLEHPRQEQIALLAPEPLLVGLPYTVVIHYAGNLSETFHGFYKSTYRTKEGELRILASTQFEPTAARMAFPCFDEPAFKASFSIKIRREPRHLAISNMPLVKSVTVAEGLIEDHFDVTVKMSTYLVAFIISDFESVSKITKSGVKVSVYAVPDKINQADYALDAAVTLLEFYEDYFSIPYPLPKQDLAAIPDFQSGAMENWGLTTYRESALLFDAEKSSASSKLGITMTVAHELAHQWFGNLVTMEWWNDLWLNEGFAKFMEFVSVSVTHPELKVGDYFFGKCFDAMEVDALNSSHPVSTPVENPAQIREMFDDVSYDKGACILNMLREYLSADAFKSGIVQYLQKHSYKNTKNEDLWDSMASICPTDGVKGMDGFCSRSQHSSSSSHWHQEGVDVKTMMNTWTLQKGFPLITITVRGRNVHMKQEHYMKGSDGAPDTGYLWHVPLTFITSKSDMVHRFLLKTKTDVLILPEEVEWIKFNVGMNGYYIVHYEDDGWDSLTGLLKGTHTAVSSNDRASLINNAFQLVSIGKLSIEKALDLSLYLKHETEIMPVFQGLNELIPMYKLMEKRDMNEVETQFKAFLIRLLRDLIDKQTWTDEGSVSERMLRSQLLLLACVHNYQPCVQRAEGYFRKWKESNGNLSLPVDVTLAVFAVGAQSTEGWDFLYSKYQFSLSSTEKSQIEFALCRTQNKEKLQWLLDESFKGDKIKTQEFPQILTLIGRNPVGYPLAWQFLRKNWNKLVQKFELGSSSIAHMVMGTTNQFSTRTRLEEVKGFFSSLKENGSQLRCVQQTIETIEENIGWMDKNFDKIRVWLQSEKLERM

## C[C@@H]1CCCCO[C@@H](CN(C)S(C)(=O)=O)[C@@H](C)CN([C@@H](C)CO)C(=O)c2cc(NS(=O)(=O)c3ccc(Cl)cc3)ccc2O1
  AC40: 266 nM

## COc1ccc(CNCc2c(O)c(Cl)cc3c(C)c(C)c(=O)oc23)c(OC)c1
  AC40: 2190 nM

## C[C@H]1CN([C@@H](C)CO)C(=O)c2cccc(NC(=O)Nc3ccc(C(F)(F)F)cc3)c2O[C@@H]1CN(C)C
  AC40: 1410 nM

## CCN1[C@H](C(=O)Nc2nccs2)[C@@H](CO)[C@@H]2Cn3c(ccc(/C=C/c4ccccc4)c3=O)[C@@H]21
At 10 µM (top of the series)
  activity increase (activation): -13.4% (inactive)

## C[C@@H]1CCCCO[C@@H](CN(C)C)[C@@H](C)CN([C@H](C)CO)C(=O)c2cc(NS(=O)(=O)c3ccc(Cl)cc3)ccc2O1
  AC40: 381 nM

## O=c1ccc2cc(O[C@@H]3O[C@@H](CO)[C@H](O)[C@@H](O)[C@@H]3O)c(O)cc2o1
At 5.6 µM (top of the series)
  activity increase (activation): -79.1% (inactive)

## Cc1ccc(S(=O)(=O)Nc2ccc3c(c2)C(=O)N([C@@H](C)CO)C[C@H](C)[C@H](CN(C)C)OCCCC[C@@H](C)O3)cc1
  AC40: 480 nM

## CC1CCN(Cc2cc(=O)oc3cc(O)c(Cl)cc23)CC1
At 5.6 µM (top of the series)
  activity increase (activation): -36.5% (inactive)

## C[C@H](CO)N1C[C@H](C)[C@H](CN(C)C)Oc2c(NC(=O)Nc3ccc(C(F)(F)F)cc3)cccc2C1=O
  AC40: 935 nM

## Cc1c(C)c2ccc(O)c(CN3CCCC3)c2oc1=O
At 11 µM (top of the series)
  activity increase (activation): -57% (inactive)

## Cc1cc(=O)oc2c(CN3CCN(CCO)CC3)c(O)ccc12
At 11 µM (top of the series)
  activity increase (activation): -61.9% (inactive)

## NC(=NCCc1c[nH]c2ccccc12)NS(=O)(=O)c1cc(F)ccc1F
At 11 µM (top of the series)
  activity increase (activation): -59.5% (inactive)

## CCc1cc(=O)oc2c(CN3CCN(C)CC3)c(O)ccc12
At 11 µM (top of the series)
  activity increase (activation): -65.3% (inactive)

## CCN(CC)Cc1c(O)c(Cl)cc2c(C)cc(=O)oc12
At 11 µM (top of the series)
  activity increase (activation): -83.4% (inactive)

## Cc1noc(C)c1S(=O)(=O)Nc1ccc2c(c1)C(=O)N([C@H](C)CO)C[C@@H](C)[C@@H](CN(C)CC1CCCCC1)OCCCC[C@@H](C)O2
  AC40: 5460 nM

## O=C(Nc1ccc(C(F)(F)F)cc1)N1[C@@H]2CNC[C@H]1C2c1ccc(-c2ccncc2)cc1 (some centres not stated)
  AC40: 7230 nM

## COc1ccc(NC(=O)Nc2ccc3c(c2)C(=O)N([C@@H](C)CO)C[C@@H](C)[C@@H](CN(C)Cc2ccc(C(=O)O)cc2)OCCCC[C@@H](C)O3)cc1
  AC40: < 80 nM

## CC(C)(C)c1cc(N2CCOCC2)n2ncc(-c3ccccc3)c2n1
At 11 µM (top of the series)
  activity increase (activation): -42% (inactive)

## COc1ccc(CN(C)C[C@@H]2OCCCC[C@@H](C)Oc3ccc(NS(=O)(=O)c4cccs4)cc3C(=O)N([C@H](C)CO)C[C@@H]2C)cc1
  AC40: 161 nM

## C[C@@H]1CCCCO[C@@H](CN(C)CC2CCCCC2)[C@H](C)CN([C@@H](C)CO)C(=O)c2cc(NC(=O)Nc3ccccc3)ccc2O1
  AC40: 357 nM

## COc1cc2ccc(=O)oc2cc1O
At 11 µM (top of the series)
  activity increase (activation): -97.7% (inactive)

## CN(C)Cc1c(O)ccc2cc(-c3nc4ccccc4n3C)c(=O)oc12
At 11 µM (top of the series)
  activity increase (activation): -107% (inactive)
